Data from publication PMC12621189, “Optimization of Selective and CNS Penetrant Alkyne-Based TREK Inhibitors: The Discovery and Characterization of ONO-9517601 (VU6022856) and ONO-7927846 (VU6024391)” (Journal of Medicinal Chemistry, 2025).
Values after ≈ are worked out from the molar mass of the structure shown. Values joined by “and” are separate entries in the source; they are usually repeats but may differ in a detail not shown here. Equal entries are not always repeated. Where two headings read alike, the source gives them in different places.

Key:
[1] = target: T1, rat TREK-1 (Rattus norvegicus, UniProt Q920B6); assay: rat TREK-1 thallium flux; type: cell-based; settings: read-out: TREK-1 IC50 (rat, Tl+)
T1 sequence (Q920B6 1-426): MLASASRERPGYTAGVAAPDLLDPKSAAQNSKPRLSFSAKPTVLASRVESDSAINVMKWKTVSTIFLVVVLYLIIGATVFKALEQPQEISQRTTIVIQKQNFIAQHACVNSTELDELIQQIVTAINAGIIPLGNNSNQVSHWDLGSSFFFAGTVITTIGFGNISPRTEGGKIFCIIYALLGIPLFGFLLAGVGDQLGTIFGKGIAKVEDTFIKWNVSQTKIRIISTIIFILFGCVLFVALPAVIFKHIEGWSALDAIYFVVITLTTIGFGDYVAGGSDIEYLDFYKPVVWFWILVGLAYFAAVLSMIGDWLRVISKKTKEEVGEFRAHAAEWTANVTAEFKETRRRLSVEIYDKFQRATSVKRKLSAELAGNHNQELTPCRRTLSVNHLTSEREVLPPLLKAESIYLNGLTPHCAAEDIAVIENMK

[2] = target: mouse TREK-1 (Mus musculus, UniProt P97438); assay: mouse TREK-1 thallium flux; type: cell-based; settings: read-out: TREK-1 IC50 (mouse, Tl+)
[3] = target: T1, rat TREK-1; assay: rat TREK-1 manual patch clamp; type: cell-based; settings: read-out: TREK-1 IC50 (rat, MPC)
[4] = Aqueous solubility; type: physicochemical
[5] = Brain homogenate binding, rat; type: in vitro ADME; settings: bound
Procedure: concentration), which was aliquoted in triplicate to the ‘bottom half’ of the prepared HTD plate wells. The HTD plate was sealed and incubated for 6 hours at 37 °C. Following incubation, each well (both top and bottom halves) were transferred (20 µL) to the corresponding wells of a 96-shallow-well (V-bottom) plate. The daughter plates were then matrix-matched (DPBS side wells received equal volume of plasma, and plasma side wells received equal volume of DPBS), and extraction solution (120 µL; acetonitrile containing 50 nM carbamazepine as IS) was added to all wells of both daughter plates to precipitate protein and extract test article. […]
The unbound fraction (f u) was calculated following the equation below, and mean values for each species were calculated from 3 replicates.
A similar approach was used to determine the degree of brain homogenate binding, which employed the same methodology and procedure with the following modifications: 1) a final compound concentration of 1 μM was used, 2) naïve rat brains were homogenized in DPBS (1:3 composition of brain: DPBS, w/w) using a Mini-Bead Beater™ machine in order to obtain brain homogenate, which was then treated in the same manner as the plasma samples in the previously described plasma protein binding assay. Fraction unbound for both plasma and brain samples was determined using Equation 4. […]

[6] = target: CYP 2C9 (Homo sapiens, UniProt P11712); assay: CYP450 inhibition 2C9; type: in vitro ADME
[7] = target: CYP 2D6 (Homo sapiens, UniProt P10635); assay: CYP450 inhibition 2D6; type: in vitro ADME
[8] = system: 5-strains, with and without S9; assay: AMES assay (5-strains, with and without S9); type: cell-based
[9] = CACO-2 efflux ratio; type: in vitro ADME; settings: human, pH 7.4, efflux ratio, read-out: CACO-2 (ER)
[10] = IV/PO pharmacokinetic study, dog (beagle); type: in vivo; settings: for clearance: beagle, dog, iv, read-out: CLp; for clearance / Vd / half-life / Cmax: plasma; for clearance / CLp / Vd / half-life: iv 1 mg/kg (10), 0.5 mg/kg (11); for Vd: read-out: Vss; for half-life: read-out: elimination t1/2 (converted); for Cmax / F (%) po: po 1 mg/kg
[11] = target: A3 (Homo sapiens, UniProt P0DMS8); assay: Functional assay, adenosine A3; type: biochemical
[12] = target: Cav1.2 (Homo sapiens, UniProt Q13936); assay: MPC ion channel panel, Cav1.2; type: cell-based
[13] = target: Kv1.5 (Homo sapiens, UniProt P22460); assay: MPC ion channel panel, Kv1.5; type: cell-based
[14] = target: Kv4.3 (Homo sapiens, UniProt Q9UK17); assay: MPC ion channel panel, Kv4.3; type: cell-based
[15] = target: KCNQ1/E1 (Homo sapiens, UniProt P51787); assay: MPC ion channel panel, KCNQ1/E1; type: cell-based
[16] = target: Nav1.5 (Homo sapiens, UniProt Q14524); assay: MPC ion channel panel, Nav1.5; type: cell-based
[17] = target: hERG (Homo sapiens, UniProt Q12809); assay: Functional hERG inhibition; type: cell-based
[18] = system: MK-801 challenged rat; assay: MK-801 challenge novel object recognition (NOR), rat; type: in vivo; settings: for Minimum effective dose (MED), MK-801 challenge NOR: PO, MK-801 0.2 mg/kg IP; for reversal of the MK-801 deficit in NOR: oral, 10 at 1, 3 mg/kg, 11 at 0.3, 1 mg/kg
[19] = Brain exposure at the MED (rat NOR); type: in vivo; settings: oral, 10 at 1 mg/kg, 11 at 0.3 mg/kg
[20] = Embryo fetal developmental toxicity in vivo
[21] = in vivo; settings: rat, po
[22] = Rat 4-day dosing general toxicity study; settings: at NOAEL doses, rat 4-day study

Chain of CYP 2D6 (P10635 whole entry): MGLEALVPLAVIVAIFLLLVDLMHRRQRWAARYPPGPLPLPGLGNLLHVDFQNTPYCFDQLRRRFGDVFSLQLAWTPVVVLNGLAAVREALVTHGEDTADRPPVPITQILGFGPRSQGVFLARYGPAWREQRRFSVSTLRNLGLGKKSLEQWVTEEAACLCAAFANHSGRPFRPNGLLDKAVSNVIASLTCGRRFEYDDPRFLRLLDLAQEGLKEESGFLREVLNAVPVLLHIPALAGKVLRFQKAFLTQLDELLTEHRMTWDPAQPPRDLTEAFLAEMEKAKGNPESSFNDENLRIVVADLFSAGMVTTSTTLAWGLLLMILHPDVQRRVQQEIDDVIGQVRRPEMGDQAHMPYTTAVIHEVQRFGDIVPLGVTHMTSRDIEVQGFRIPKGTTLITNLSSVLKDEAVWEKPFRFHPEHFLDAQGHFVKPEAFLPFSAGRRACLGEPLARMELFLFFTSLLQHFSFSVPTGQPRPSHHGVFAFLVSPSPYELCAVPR
Chain of A3 (P0DMS8 whole entry): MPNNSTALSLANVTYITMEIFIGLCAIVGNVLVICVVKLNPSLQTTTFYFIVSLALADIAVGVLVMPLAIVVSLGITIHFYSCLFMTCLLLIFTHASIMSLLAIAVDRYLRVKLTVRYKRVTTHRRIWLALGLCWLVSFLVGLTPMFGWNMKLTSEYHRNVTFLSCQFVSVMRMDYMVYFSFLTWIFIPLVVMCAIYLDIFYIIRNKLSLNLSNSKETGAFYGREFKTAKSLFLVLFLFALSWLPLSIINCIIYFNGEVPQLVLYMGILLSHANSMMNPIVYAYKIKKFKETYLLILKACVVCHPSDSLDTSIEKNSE
Chain of Nav1.5 (Q14524 whole entry): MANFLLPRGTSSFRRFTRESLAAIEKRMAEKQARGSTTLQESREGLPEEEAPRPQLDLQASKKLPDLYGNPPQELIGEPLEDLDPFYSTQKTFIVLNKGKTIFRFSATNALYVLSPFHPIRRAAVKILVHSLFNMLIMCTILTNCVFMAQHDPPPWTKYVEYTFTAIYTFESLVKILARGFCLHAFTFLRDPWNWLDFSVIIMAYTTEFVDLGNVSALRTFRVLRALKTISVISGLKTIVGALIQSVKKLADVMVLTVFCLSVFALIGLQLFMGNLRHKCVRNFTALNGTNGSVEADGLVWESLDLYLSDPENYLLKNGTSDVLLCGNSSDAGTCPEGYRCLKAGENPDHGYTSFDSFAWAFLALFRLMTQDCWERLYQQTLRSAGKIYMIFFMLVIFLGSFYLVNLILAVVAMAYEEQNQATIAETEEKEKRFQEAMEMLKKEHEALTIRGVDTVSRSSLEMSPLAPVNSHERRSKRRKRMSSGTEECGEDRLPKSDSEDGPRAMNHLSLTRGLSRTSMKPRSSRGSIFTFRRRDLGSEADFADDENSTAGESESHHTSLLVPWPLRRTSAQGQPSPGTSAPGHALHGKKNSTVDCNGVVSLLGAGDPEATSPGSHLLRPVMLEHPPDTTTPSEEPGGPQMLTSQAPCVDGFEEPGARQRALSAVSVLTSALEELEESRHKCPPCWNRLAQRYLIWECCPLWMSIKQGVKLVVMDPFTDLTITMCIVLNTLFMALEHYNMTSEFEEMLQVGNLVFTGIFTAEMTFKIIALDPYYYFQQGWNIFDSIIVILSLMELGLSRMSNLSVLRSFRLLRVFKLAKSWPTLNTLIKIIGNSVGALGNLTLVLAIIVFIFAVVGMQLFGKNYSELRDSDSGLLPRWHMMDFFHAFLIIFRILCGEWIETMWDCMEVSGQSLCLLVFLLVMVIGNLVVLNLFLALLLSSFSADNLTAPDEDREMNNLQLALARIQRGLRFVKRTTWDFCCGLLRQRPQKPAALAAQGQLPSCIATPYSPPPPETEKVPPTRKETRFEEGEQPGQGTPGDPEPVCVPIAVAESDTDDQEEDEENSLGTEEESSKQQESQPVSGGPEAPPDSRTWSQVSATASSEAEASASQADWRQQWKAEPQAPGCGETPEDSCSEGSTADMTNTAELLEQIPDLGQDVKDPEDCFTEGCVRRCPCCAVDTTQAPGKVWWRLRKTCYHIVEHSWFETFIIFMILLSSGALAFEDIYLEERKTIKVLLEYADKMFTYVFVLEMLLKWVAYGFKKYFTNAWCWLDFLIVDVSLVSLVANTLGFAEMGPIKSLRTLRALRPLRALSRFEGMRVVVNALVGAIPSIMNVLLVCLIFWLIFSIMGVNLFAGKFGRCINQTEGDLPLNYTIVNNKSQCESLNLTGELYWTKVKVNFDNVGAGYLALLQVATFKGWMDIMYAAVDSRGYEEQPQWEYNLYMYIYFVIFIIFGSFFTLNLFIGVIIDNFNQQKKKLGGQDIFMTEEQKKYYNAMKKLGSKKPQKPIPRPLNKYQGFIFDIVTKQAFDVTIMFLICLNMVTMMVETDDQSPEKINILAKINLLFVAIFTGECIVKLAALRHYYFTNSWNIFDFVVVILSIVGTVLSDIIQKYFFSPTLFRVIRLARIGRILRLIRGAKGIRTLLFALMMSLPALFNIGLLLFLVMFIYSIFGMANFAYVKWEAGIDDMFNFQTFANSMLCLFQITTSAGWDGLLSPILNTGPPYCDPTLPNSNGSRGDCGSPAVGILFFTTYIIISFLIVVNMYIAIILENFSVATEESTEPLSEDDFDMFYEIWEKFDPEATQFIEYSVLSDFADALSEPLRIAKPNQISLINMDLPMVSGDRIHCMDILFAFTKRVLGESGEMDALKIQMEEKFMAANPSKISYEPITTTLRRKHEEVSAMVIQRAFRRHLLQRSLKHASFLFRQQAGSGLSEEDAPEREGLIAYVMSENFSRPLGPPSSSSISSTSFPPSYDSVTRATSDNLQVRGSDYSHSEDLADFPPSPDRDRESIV
Chain of Kv4.3 (Q9UK17 whole entry): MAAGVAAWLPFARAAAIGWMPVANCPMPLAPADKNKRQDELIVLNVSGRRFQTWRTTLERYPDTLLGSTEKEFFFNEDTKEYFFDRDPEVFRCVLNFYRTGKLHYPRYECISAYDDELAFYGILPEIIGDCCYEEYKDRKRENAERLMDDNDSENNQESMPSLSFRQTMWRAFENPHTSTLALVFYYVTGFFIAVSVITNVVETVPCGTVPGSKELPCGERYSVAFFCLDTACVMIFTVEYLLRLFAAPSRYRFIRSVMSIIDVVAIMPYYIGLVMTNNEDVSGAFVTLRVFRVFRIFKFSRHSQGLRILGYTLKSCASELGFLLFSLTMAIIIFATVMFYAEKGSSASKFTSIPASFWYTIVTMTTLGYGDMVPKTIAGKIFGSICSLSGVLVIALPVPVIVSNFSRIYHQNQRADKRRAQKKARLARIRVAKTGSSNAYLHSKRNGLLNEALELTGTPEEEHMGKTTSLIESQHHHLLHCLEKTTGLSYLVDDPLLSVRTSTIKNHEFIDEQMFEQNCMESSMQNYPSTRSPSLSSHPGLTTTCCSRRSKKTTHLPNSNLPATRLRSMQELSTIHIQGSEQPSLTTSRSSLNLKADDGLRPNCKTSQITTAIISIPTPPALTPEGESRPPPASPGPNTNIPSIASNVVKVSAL
Chain of CYP 2C9 (P11712 whole entry): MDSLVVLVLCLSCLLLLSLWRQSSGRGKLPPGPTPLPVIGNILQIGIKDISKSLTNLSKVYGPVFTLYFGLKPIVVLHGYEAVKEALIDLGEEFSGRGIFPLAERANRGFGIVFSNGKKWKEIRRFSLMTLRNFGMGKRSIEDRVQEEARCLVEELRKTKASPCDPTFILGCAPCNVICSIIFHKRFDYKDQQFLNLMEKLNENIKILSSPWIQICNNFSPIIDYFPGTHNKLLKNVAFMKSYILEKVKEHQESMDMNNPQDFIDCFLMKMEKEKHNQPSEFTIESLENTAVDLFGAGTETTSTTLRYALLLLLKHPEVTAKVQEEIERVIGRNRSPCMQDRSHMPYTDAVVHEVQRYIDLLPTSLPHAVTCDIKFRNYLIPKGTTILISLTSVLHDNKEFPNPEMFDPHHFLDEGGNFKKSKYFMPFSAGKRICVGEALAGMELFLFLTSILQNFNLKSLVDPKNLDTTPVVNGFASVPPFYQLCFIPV
Chain of Kv1.5 (P22460 whole entry): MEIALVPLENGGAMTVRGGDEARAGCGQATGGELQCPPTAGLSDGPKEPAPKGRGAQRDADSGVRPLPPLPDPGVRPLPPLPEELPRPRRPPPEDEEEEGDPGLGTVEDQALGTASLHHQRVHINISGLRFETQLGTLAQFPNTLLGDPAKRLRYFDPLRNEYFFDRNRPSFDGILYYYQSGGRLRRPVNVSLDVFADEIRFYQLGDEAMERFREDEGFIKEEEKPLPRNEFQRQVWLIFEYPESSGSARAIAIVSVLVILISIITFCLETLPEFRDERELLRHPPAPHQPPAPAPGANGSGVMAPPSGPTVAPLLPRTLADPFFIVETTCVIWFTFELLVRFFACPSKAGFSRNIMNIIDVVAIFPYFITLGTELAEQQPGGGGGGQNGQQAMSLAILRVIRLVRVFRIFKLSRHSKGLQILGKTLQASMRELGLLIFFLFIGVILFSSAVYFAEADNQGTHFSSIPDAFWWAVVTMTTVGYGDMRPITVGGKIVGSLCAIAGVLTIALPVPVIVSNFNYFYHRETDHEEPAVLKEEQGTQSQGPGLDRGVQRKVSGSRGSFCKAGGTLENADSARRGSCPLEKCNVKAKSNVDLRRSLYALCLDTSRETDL
Chain of mouse TREK-1 (P97438 whole entry): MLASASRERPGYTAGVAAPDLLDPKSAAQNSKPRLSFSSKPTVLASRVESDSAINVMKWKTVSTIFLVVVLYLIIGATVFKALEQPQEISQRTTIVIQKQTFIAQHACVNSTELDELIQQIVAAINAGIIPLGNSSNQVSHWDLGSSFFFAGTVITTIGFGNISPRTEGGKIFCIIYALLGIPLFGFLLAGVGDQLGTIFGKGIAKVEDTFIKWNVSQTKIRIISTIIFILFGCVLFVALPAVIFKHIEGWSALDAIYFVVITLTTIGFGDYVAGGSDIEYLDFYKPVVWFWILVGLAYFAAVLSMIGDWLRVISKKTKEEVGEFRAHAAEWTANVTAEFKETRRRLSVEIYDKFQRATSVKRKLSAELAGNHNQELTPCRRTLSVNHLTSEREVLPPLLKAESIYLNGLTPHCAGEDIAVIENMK

| Structure (SMILES) | IC50 [1] [µM] | IC50 [2] [µM] | IC50 [3] [µM] | solubility [4] [µM] | BHB rat [5] | IC50 [6] [µM] | IC50 [7] [µM] | AMES [8] | efflux ratio [9] | clearance [10] [mL/min/kg] | CLp [10] [mL/min/kg] | Vd [10] [L/kg] | half-life [10] [h] | Cmax [10] [ng/mL] | F (%) po [10] [%] | IC50 [11] [µM] | inhibition at 10 µM [12] [%] | inhibition at 10 µM [13] [%] | inhibition at 10 µM [14] [%] | inhibition at 10 µM [15] [%] | other results |
| --- | --- | --- | --- | --- | --- | --- | --- | --- | --- | --- | --- | --- | --- | --- | --- | --- | --- | --- | --- | --- | --- |
| CC(=O)N1CCC(n2ncc(Cl)c2C(=O)Nc2ncc(C#Cc3ccccc3)cc2C)CC1 [Compound 10, 1-(1-Acetylpiperidin-4-yl)-4-chloro-N-(3-methyl-5-(phenylethynyl)pyridin-2-yl)-1H-pyrazole-5-carboxamide] | 0.28 | 0.23 | 0.088 | 31 (≈ 14.3 µg/mL) | 99.5% and 99.5, 99.5% | 6.1 | 10.3 | Negative | 0.7 | < 2 | 1.9 | 5.9 | 56 | 315 | 97 | 5.37 | ≤ 50 | ≤ 50 | ≤ 50 | ≤ 50 | inhibition at 10 µM [16]: ≤ 50%; IC50 [17]: 6.7 µM; Minimum effective dose (MED), MK-801 challenge NOR [18]: 1 mg/kg; reversal of the MK-801 deficit in NOR [18]: significantly reversed the MK-801 deficit; Cmax [19]: 218 nM; embryo fetal developmental toxicity [20]: positive; embryo fetal developmental toxicity ([20]; listed as ONO-9517601): positive signal; NOAEL at 4 days [21]: 10 mg/kg; safety margin based on the AUC [22]: more than 10 fold |
| CC(=O)N1CC[C@@H](n2ncc(Cl)c2C(=O)Nc2ncc(C#Cc3ccc(F)cc3)cc2C)[C@H](F)C1 [Compound 11, 1-((3R,4R)-1-Acetyl-3-fluoropiperidin-4-yl)-4-chloro-N-(5-((4-fluorophenyl)ethynyl)-3-methylpyridin-2-yl)-1H-pyrazole-5-carboxamide] | 0.29 | 0.44 | 0.2 | 14 (≈ 6.97 µg/mL) | 99.4% | 4.9 | 7 | Negative | 0.91 | < 2 | 1.5 | 7.1 | 76 | 263 | 100 | 19.8 | ≤ 50 | ≤ 50 | ≤ 50 | 60 | inhibition at 10 µM [16]: ≤ 50%; IC50 [17]: 4.3 µM; Minimum effective dose (MED), MK-801 challenge NOR [18]: 0.3 mg/kg; reversal of the MK-801 deficit in NOR [18]: significantly reversed the MK-801 deficit; Cmax [19]: 58 nM; embryo fetal developmental toxicity [20]: positive; embryo fetal developmental toxicity ([20]; listed as ONO-7927846): positive signal; NOAEL at 4 days [21]: 6 mg/kg; safety margin based on the AUC [22]: more than 10 fold |
